{"source": "paper PMC5218480", "about": "(PLoS ONE, 2017)", "test_system": "MV-4-11 cells", "test": "Gene expression microarray analysis (Affymetrix PrimeView) and GSEA", "type": "cell-based, human", "parameters": "RFU PODN (11730768_x_at) / Fold change /veh PODN (11730768_x_at) / RFU LINC00158 (11744669_a_at) / Fold change /veh LINC00158 (11744669_a_at) / RFU DUSP10 (11751237_a_at) / Fold change /veh DUSP10 (11751237_a_at) / RFU ID3 (11757404_x_at) / Fold change /veh ID3 (11757404_x_at) / RFU PLEKHG5 (11737974_s_at) / Fold change /veh PLEKHG5 (11737974_s_at) / RFU LRRC4B (11730491_at) / Fold change /veh LRRC4B (11730491_at) / RFU GIMAP4 (11747438_a_at) / Fold change /veh GIMAP4 (11747438_a_at) / RFU KRT8 (11758183_x_at) / Fold change /veh KRT8 (11758183_x_at) / RFU CNN1 (11734310_a_at) / Fold change /veh CNN1 (11734310_a_at) / RFU VPS37D (11726825_at) / Fold change /veh VPS37D (11726825_at) / RFU C10orf10 (11716522_x_at) / Fold change /veh C10orf10 (11716522_x_at) / RFU KIR2DL2 /// KIR2DL4 /// KIR2DL5A /// KIR2DL5B /// KIR2DS1 /// KIR2DS2 /// KIR2DS3 /// KIR2DS4 /// KIR3DL3 /// KIR3DL3 /// KIR3DS1 (11738374_at) / Fold change /veh KIR2DL2 /// KIR2DL4 /// KIR2DL5A /// KIR2DL5B /// KIR2DS1 /// KIR2DS2 /// KIR2DS3 /// KIR2DS4 /// KIR3DL3 /// KIR3DL3 /// KIR3DS1 (11738374_at) / RFU C1QL1 (11718748_at) / Fold change /veh C1QL1 (11718748_at) / RFU TMPRSS4 (11747572_a_at) / Fold change /veh TMPRSS4 (11747572_a_at) / RFU HAMP (11756126_x_at) / Fold change /veh HAMP (11756126_x_at) / RFU RNFT2 (11725882_a_at) / Fold change /veh RNFT2 (11725882_a_at) / RFU NR4A2 (11747474_a_at) / Fold change /veh NR4A2 (11747474_a_at) / RFU ABCC12 (11746883_a_at) / Fold change /veh ABCC12 (11746883_a_at) / RFU TMEM136 (11760407_x_at) / Fold change /veh TMEM136 (11760407_x_at) / RFU CLDN22 /// WWC2 (11732394_at) / Fold change /veh CLDN22 /// WWC2 (11732394_at) / RFU HLA-DPB1 (11760878_x_at) / Fold change /veh HLA-DPB1 (11760878_x_at) / RFU SPINT1 (11716480_a_at) / Fold change /veh SPINT1 (11716480_a_at) / RFU GAP43 (11754022_s_at) / Fold change /veh GAP43 (11754022_s_at) / RFU A4GNT (11735810_at) / Fold change /veh A4GNT (11735810_at) / RFU PRB3 (11715151_x_at) / Fold change /veh PRB3 (11715151_x_at) / RFU TUBB4B (11761932_at) / Fold change /veh TUBB4B (11761932_at) / RFU CAPN14 (11732068_a_at) / Fold change /veh CAPN14 (11732068_a_at) / RFU TMCC2 (11721928_a_at) / Fold change /veh TMCC2 (11721928_a_at) / RFU IRGQ (11745062_a_at) / Fold change /veh IRGQ (11745062_a_at) / RFU FAM174B (11720279_a_at) / Fold change /veh FAM174B (11720279_a_at) / RFU TMPRSS4 (11748680_a_at) / Fold change /veh TMPRSS4 (11748680_a_at) / RFU FAM212B (11763350_a_at) / Fold change /veh FAM212B (11763350_a_at) / RFU PLEKHG5 (11743358_a_at) / Fold change /veh PLEKHG5 (11743358_a_at) / RFU ZSCAN30 (11745921_a_at) / Fold change /veh ZSCAN30 (11745921_a_at) / RFU CMKLR1 (11741424_a_at) / Fold change /veh CMKLR1 (11741424_a_at) / RFU LOC101060620 /// MAPK8IP1 (11723275_at) / Fold change /veh LOC101060620 /// MAPK8IP1 (11723275_at) / RFU SPTSSB (11747773_x_at) / Fold change /veh SPTSSB (11747773_x_at) / RFU PRSS12 (11739890_at) / Fold change /veh PRSS12 (11739890_at) / RFU BIN1 (11741810_x_at) / Fold change /veh BIN1 (11741810_x_at) / RFU WNT11 (11732464_a_at) / Fold change /veh WNT11 (11732464_a_at) / RFU C10orf10 (11716521_a_at) / Fold change /veh C10orf10 (11716521_a_at) / RFU C5orf56 (11738089_at) / Fold change /veh C5orf56 (11738089_at) / RFU CYB561 (11721691_x_at) / Fold change /veh CYB561 (11721691_x_at) / RFU ANKRD19P (11752326_a_at) / Fold change /veh ANKRD19P (11752326_a_at) / RFU OR2T12 /// OR2T33 /// OR2T8 (11738714_s_at) / Fold change /veh OR2T12 /// OR2T33 /// OR2T8 (11738714_s_at) / RFU VCAN (11748164_a_at) / Fold change /veh VCAN (11748164_a_at) / RFU JSRP1 (11732532_at) / Fold change /veh JSRP1 (11732532_at) / RFU KRTAP10-11 (11738290_x_at) / Fold change /veh KRTAP10-11 (11738290_x_at) / RFU MYO3A (11730013_a_at) / Fold change /veh MYO3A (11730013_a_at) / RFU EBF3 (11725865_a_at) / Fold change /veh EBF3 (11725865_a_at) / RFU CAMK2N1 (11719241_x_at) / Fold change /veh CAMK2N1 (11719241_x_at) / RFU C5orf56 (11738088_a_at) / Fold change /veh C5orf56 (11738088_a_at) / RFU OLFML3 (11715873_a_at) / Fold change /veh OLFML3 (11715873_a_at) / RFU LOC100653217 /// NTM (11731650_a_at) / Fold change /veh LOC100653217 /// NTM (11731650_a_at) / RFU MAPK11 (11762145_a_at) / Fold change /veh MAPK11 (11762145_a_at) / RFU FIZ1 (11724087_x_at) / Fold change /veh FIZ1 (11724087_x_at) / RFU OASL (11726364_x_at) / Fold change /veh OASL (11726364_x_at) / RFU SOX15 (11748057_x_at) / Fold change /veh SOX15 (11748057_x_at) / RFU CD79A (11719716_a_at) / Fold change /veh CD79A (11719716_a_at) / RFU HIST1H1D (11736915_at) / Fold change /veh HIST1H1D (11736915_at) / RFU CASKIN2 (11723855_a_at) / Fold change /veh CASKIN2 (11723855_a_at) / RFU LOC730098 (11760151_x_at) / Fold change /veh LOC730098 (11760151_x_at) / RFU OR4N2 (11742367_at) / Fold change /veh OR4N2 (11742367_at) / RFU PRRT2 (11749266_a_at) / Fold change /veh PRRT2 (11749266_a_at) / RFU SNX32 (11753110_a_at) / Fold change /veh SNX32 (11753110_a_at) / RFU CDHR5 (11726645_a_at) / Fold change /veh CDHR5 (11726645_a_at) / RFU RCAN1 (11760418_a_at) / Fold change /veh RCAN1 (11760418_a_at) / RFU FAM167A (11723789_a_at) / Fold change /veh FAM167A (11723789_a_at) / RFU FAM26E (11764081_at) / Fold change /veh FAM26E (11764081_at) / RFU ISYNA1 (11749810_s_at) / Fold change /veh ISYNA1 (11749810_s_at) / RFU ACY1 (11761880_at) / Fold change /veh ACY1 (11761880_at) / RFU 11764098_at / Fold change /veh 11764098_at / RFU SAMD14 (11745864_x_at) / Fold change /veh SAMD14 (11745864_x_at) / RFU NPB (11741838_a_at) / Fold change /veh NPB (11741838_a_at) / RFU TMPRSS6 (11731388_a_at) / Fold change /veh TMPRSS6 (11731388_a_at) / RFU KRTAP10-2 (11738614_at) / Fold change /veh KRTAP10-2 (11738614_at) / RFU ARHGAP8 /// PRR5-ARHGAP8 (11727945_x_at) / Fold change /veh ARHGAP8 /// PRR5-ARHGAP8 (11727945_x_at) / RFU KRTAP5-7 /// NADSYN1 (11734609_at) / Fold change /veh KRTAP5-7 /// NADSYN1 (11734609_at) / RFU RASL12 (11751679_a_at) / Fold change /veh RASL12 (11751679_a_at) / RFU CDKN2B (11736163_a_at) / Fold change /veh CDKN2B (11736163_a_at) / RFU PRF1 (11729649_at) / Fold change /veh PRF1 (11729649_at) / RFU, ZNF638 /// ZNF638-IT1 / Fold change vs veh, ZNF638 /// ZNF638-IT1 / RFU, PANK3 / Fold change vs veh, PANK3 / RFU, SH3YL1 / Fold change vs veh, SH3YL1 / RFU, ZEB2 / Fold change vs veh, ZEB2 / RFU, NRIP1 / Fold change vs veh, NRIP1 / RFU, PTTG1IP / Fold change vs veh, PTTG1IP / RFU, CAPN2 / Fold change vs veh, CAPN2 / RFU, MED14 / Fold change vs veh, MED14 / RFU, SNORA58 / Fold change vs veh, SNORA58 / RFU, C1orf63 / Fold change vs veh, C1orf63 / RFU, LRRFIP1 / Fold change vs veh, LRRFIP1 / RFU, NDUFAF7 / Fold change vs veh, NDUFAF7 / RFU, SLC12A2 / Fold change vs veh, SLC12A2 / RFU, IBTK / Fold change vs veh, IBTK / RFU, ESF1 / Fold change vs veh, ESF1 / Fold change vs veh, TMEM50B / RFU, TAOK1 / Fold change vs veh, TAOK1 / RFU, ACBD3 / Fold change vs veh, ACBD3 / RFU, TMA16 / Fold change vs veh, TMA16 / RFU, RWDD3 / Fold change vs veh, RWDD3 / RFU, BCAT1 / Fold change vs veh, BCAT1 / RFU, EDEM3 / Fold change vs veh, EDEM3 / RFU, TMEM33 / Fold change vs veh, TMEM33 / RFU, WDR75 / Fold change vs veh, WDR75 / RFU, AHCTF1 / Fold change vs veh, AHCTF1 / RFU, TFRC / Fold change vs veh, TFRC / RFU, ZDHHC17 / Fold change vs veh, ZDHHC17 / RFU, NOM1 / Fold change vs veh, NOM1 / RFU, ARL8B / Fold change vs veh, ARL8B / RFU, ZBTB11 / Fold change vs veh, ZBTB11 / RFU, TAMM41 / Fold change vs veh, TAMM41 / RFU, KIAA1704 /// LOC100996395 / Fold change vs veh, KIAA1704 /// LOC100996395 / RFU, ING1 / Fold change vs veh, ING1 / RFU, TRMT61B / Fold change vs veh, TRMT61B / RFU, FUBP3 / Fold change vs veh, FUBP3 / RFU, TP53 / Fold change vs veh, TP53 / RFU, TNKS2 / Fold change vs veh, TNKS2 / RFU, ZFP14 / Fold change vs veh, ZFP14 / RFU, ACTR2 / Fold change vs veh, ACTR2 / RFU, PPP3R1 / Fold change vs veh, PPP3R1 / RFU, PIK3R1 / Fold change vs veh, PIK3R1 / RFU, HNRNPA1 / Fold change vs veh, HNRNPA1 / RFU, RNF170 / Fold change vs veh, RNF170 / RFU, ZNF28 / Fold change vs veh, ZNF28 / RFU, RNGTT / Fold change vs veh, RNGTT / RFU, OGT / Fold change vs veh, OGT / RFU, BRD1 / Fold change vs veh, BRD1 / RFU, MARS / Fold change vs veh, MARS / RFU, ZNF655 / Fold change vs veh, ZNF655 / RFU, FAHD1 / Fold change vs veh, FAHD1 / RFU, BDP1 / Fold change vs veh, BDP1 / RFU, LRRCC1 / Fold change vs veh, LRRCC1 / RFU, ARID1A / Fold change vs veh, ARID1A / RFU, ZNF146 / Fold change vs veh, ZNF146 / RFU, ZNF330 / Fold change vs veh, ZNF330 / RFU, GPN3 / Fold change vs veh, GPN3 / RFU, C9orf123 / Fold change vs veh, C9orf123 / RFU, N4BP2L2 / Fold change vs veh, N4BP2L2 / RFU, ARFIP1 / Fold change vs veh, ARFIP1 / RFU, FAM179B / Fold change vs veh, FAM179B / RFU, BCL10 / Fold change vs veh, BCL10 / RFU, UHRF1BP1L / Fold change vs veh, UHRF1BP1L / RFU, BET1 / Fold change vs veh, BET1 / RFU, CNOT2 / Fold change vs veh, CNOT2 / RFU, ZNF268 / Fold change vs veh, ZNF268 / Fold change vs veh, ZNF507 / RFU, DGCR2 / Fold change vs veh, DGCR2 / RFU, WDSUB1 / Fold change vs veh, WDSUB1 / Fold change vs veh, HSP90B1 /// MIR3652 / RFU, ADSS / Fold change vs veh, ADSS / RFU, GK / Fold change vs veh, GK / RFU, ZNF148 / Fold change vs veh, ZNF148 / RFU, TAF9 / Fold change vs veh, TAF9 / RFU, SLC1A5 / Fold change vs veh, SLC1A5 / RFU, SLMO2 / Fold change vs veh, SLMO2 / RFU, ABCC4 / Fold change vs veh, ABCC4 / RFU, LOC101060439 /// RAP1B / Fold change vs veh, LOC101060439 /// RAP1B / RFU, RFX7 / Fold change vs veh, RFX7 / RFU, GTPBP10 / Fold change vs veh, GTPBP10 / RFU, CNEP1R1 / Fold change vs veh, CNEP1R1 / RFU, BIVM-ERCC5 /// ERCC5 / Fold change vs veh, BIVM-ERCC5 /// ERCC5 / RFU, ILF3 / Fold change vs veh, ILF3 / RFU 11762660_at / Fold change /veh 11762660_at / RFU VCAN (11757783_s_at) / Fold change /veh VCAN (11757783_s_at) / RFU DDX43 (11728927_at) / Fold change /veh DDX43 (11728927_at) / RFU KRT8 (11758188_x_at) / Fold change /veh KRT8 (11758188_x_at) / RFU NKD1 (11759106_at) / Fold change /veh NKD1 (11759106_at) / RFU SRD5A1 (11742802_a_at) / Fold change /veh SRD5A1 (11742802_a_at) / RFU TPSAB1 /// TPSB2 (11721975_s_at) / Fold change /veh TPSAB1 /// TPSB2 (11721975_s_at) / RFU GSTM3 (11746129_a_at) / Fold change /veh GSTM3 (11746129_a_at) / RFU IL23R (11737362_x_at) / Fold change /veh IL23R (11737362_x_at) / RFU TMEM51 (11727254_a_at) / Fold change /veh TMEM51 (11727254_a_at) / RFU PIWIL2 (11732686_x_at) / Fold change /veh PIWIL2 (11732686_x_at) / RFU ORM1 (11744905_x_at) / Fold change /veh ORM1 (11744905_x_at) / RFU CCDC152 (11743942_at) / Fold change /veh CCDC152 (11743942_at) / RFU ECM1 (11717891_a_at) / Fold change /veh ECM1 (11717891_a_at) / RFU IL23R (11748794_a_at) / Fold change /veh IL23R (11748794_a_at) / RFU TNFAIP8L3 (11732012_x_at) / Fold change /veh TNFAIP8L3 (11732012_x_at) / RFU MBOAT4 (11741988_at) / Fold change /veh MBOAT4 (11741988_at) / RFU 11764193_at / Fold change /veh 11764193_at / RFU TMEM53 (11763286_at) / Fold change /veh TMEM53 (11763286_at) / RFU MAGEB2 (11727129_at) / Fold change /veh MAGEB2 (11727129_at) / RFU TMEM200A (11744735_a_at) / Fold change /veh TMEM200A (11744735_a_at) / RFU CCDC152 (11751479_a_at) / Fold change /veh CCDC152 (11751479_a_at) / RFU FAM211A (11726209_a_at) / Fold change /veh FAM211A (11726209_a_at) / RFU RGS16 (11746705_a_at) / Fold change /veh RGS16 (11746705_a_at) / RFU VCAN (11755009_s_at) / Fold change /veh VCAN (11755009_s_at) / RFU RHOB (11743442_s_at) / Fold change /veh RHOB (11743442_s_at) / RFU RGS16 (11720943_a_at) / Fold change /veh RGS16 (11720943_a_at) / RFU RGS16 (11720944_at) / Fold change /veh RGS16 (11720944_at) / RFU, VPS4B / Fold change vs veh, VPS4B / RFU, CREB1 / Fold change vs veh, CREB1 / RFU, DNAJC13 / Fold change vs veh, DNAJC13 / RFU, GNAQ / Fold change vs veh, GNAQ / RFU, CDK5R1 / Fold change vs veh, CDK5R1 / RFU, ZRANB3 / Fold change vs veh, ZRANB3 / RFU, CUL4A / Fold change vs veh, CUL4A / RFU, CCNY / Fold change vs veh, CCNY / RFU, UFL1 / Fold change vs veh, UFL1 / RFU, COG3 / Fold change vs veh, COG3 / RFU, DIAPH2 / Fold change vs veh, DIAPH2 / RFU, SKA2 / Fold change vs veh, SKA2 / RFU, AFF3 / Fold change vs veh, AFF3 / RFU, LMF1 / Fold change vs veh, LMF1 / RFU, IPO11 / Fold change vs veh, IPO11 / RFU, DFFB / Fold change vs veh, DFFB / RFU, FOXP1 / Fold change vs veh, FOXP1 / RFU, CARD8 / Fold change vs veh, CARD8 / RFU, STRN3 / Fold change vs veh, STRN3 / RFU, ADK / Fold change vs veh, ADK / RFU, RASSF2 / Fold change vs veh, RASSF2 / RFU, WIPF1 / Fold change vs veh, WIPF1 / RFU, LARP1B / Fold change vs veh, LARP1B / RFU, RASA1 / Fold change vs veh, RASA1 / RFU, RB1 / Fold change vs veh, RB1 / RFU, PPFIA1 / Fold change vs veh, PPFIA1 / RFU, MAT2A / Fold change vs veh, MAT2A / RFU, CCT5 / Fold change vs veh, CCT5 / RFU, WDR92 / Fold change vs veh, WDR92 / RFU, CUX1 / Fold change vs veh, CUX1 / RFU, TTC7A / Fold change vs veh, TTC7A / RFU, TMEM135 / Fold change vs veh, TMEM135 / RFU, DEPTOR / Fold change vs veh, DEPTOR / RFU, CPM / Fold change vs veh, CPM / RFU, DNAJB6 / Fold change vs veh, DNAJB6 / RFU, CACNA2D3 / Fold change vs veh, CACNA2D3 / RFU, DTX4 / Fold change vs veh, DTX4 / RFU, TFCP2 / Fold change vs veh, TFCP2 / RFU, GMCL1 /// GMCL1P1 / Fold change vs veh, GMCL1 /// GMCL1P1 / RFU, AEBP2 / Fold change vs veh, AEBP2 / RFU, SNHG1 /// SNORD22 /// SNORD25 /// SNORD26 /// SNORD27 /// SNORD28 /// SNORD29 /// SNORD31 / Fold change vs veh, SNHG1 /// SNORD22 /// SNORD25 /// SNORD26 /// SNORD27 /// SNORD28 /// SNORD29 /// SNORD31 / Fold change (Aza/veh), C12orf56 (ProbeSet 11735607_a_at) / Fold change (ACY-1035/veh), C12orf56 (ProbeSet 11735607_a_at) / Fold change (Aza/veh), FGFR1OP (ProbeSet 11751329_s_at) / Fold change (ACY-1035/veh), FGFR1OP (ProbeSet 11751329_s_at) / Fold change (Aza/veh), VPS36 (ProbeSet 11739960_a_at) / Fold change (ACY-1035/veh), VPS36 (ProbeSet 11739960_a_at) / RFU SYPL1 (11715823_x_at) / Fold change /veh SYPL1 (11715823_x_at) / RFU IGFBP7 (11715501_s_at) / Fold change /veh IGFBP7 (11715501_s_at) / RFU REEP3 (11722064_at) / Fold change /veh REEP3 (11722064_at) / RFU IGLL1 (11728026_x_at) / Fold change /veh IGLL1 (11728026_x_at): dose or concentration left out as unconfirmed", "details": "MV-4-11 cells, 48 hours", "data": [{"smiles": "Nc1ncn([C@@H]2O[C@H](CO)[C@@H](O)[C@H]2O)c(=O)n1", "note": "[azacitidine]", "values": [{"measurement": "RFU C10orf10 (11716521_a_at)", "value": 42.51, "unit": "RFU"}]}]}
